# Test results taken from patent US12024500B2, “Five-membered ring-substituted pyridazinol compounds and derivatives, preparation methods, herbicidal compositions and applications thereof” (Qingdao Kingagroot Chemical Compound Co., Ltd., priority 2018, dated 2024).
# What was measured:
# Type in all cases: in vivo
# Amaranthus retroflexus = experiment: Post-emergence weed control test (greenhouse pot, spray); settings: 3 weeks after spraying
# Description: (§1) The activity level standard of harmful plant destruction (i.e. growth inhibition rate) is as follows: • Level 10: completely dead; • Level 9: above 90% growth inhibition rate; • Level 8: above 80% growth inhibition rate; • Level 7: above 70% growth inhibition rate; • Level 6: above 60% growth inhibition rate; • Level 5: above 50% growth inhibition rate; • Level 4: above 40% growth inhibition rate; • Level 3: above 30% growth inhibition rate; • Level 2: above 20% growth inhibition rate; • Level 1: below 20% growth inhibition rate; • Level 0: no effect.
# (§2) The above described growth inhibition rates are fresh weight inhibition rates.
# (§3) Experiment of post-emergence test: monocotyledonous and dicotyledonous weed seeds as well as main crop seeds (i.e., wheat, corn, rice, soybean, cotton, oilseed rape, millet and sorghum) were put into a plastic pot loaded with soil, then covered with 0.5-2 cm of soil, and the seeds were allowed to grow in good greenhouse environment. The test plants were treated at 4-5 leaf stage 2-3 weeks after sowing. The test compounds of the invention were dissolved in acetone respectively, then added with Tween-80 and diluted by a certain amount of water to give solutions with certain concentrations. The solution was sprayed to the plants with a sprayer. The plants were cultured for 3 weeks in the greenhouse.
# Chenopodiaceae = experiment: as above; settings: 3 weeks after spraying
# Description: as §1, §2, §3
# Rorippa indica = experiment: as above; settings: 3 weeks after spraying; for weed control effect (activity level), Rorippa indica, comparison experiment: 300 g/ha
# Description: as §1, §2, §3
# Setaria viridis = experiment: as above; settings: 3 weeks after spraying; for weed control effect (activity level), Setaria viridis, comparison experiment: 300 g/ha; for inhibition at 2000 g/ha: Setaria viridis, 504 h, read-out: weed control effect (activity level, fresh weight growth inhibition rate), Setaria viridis
# Description: as §1, §2, §3
# Veronica polita = experiment: as above; settings: 3 weeks after spraying; for weed control effect (activity level), Veronica polita, comparison experiment: 300 g/ha
# Description: as §1, §2, §3
# Digitaria sanguinalis = experiment: Post-emergence weed control test (comparative experiment); settings: 300 g/ha, 3 weeks after spraying
# Description: as §1, §2, §3
# Echinochloa crus-galli = experiment: as above; settings: 300 g/ha, 3 weeks after spraying
# Description: as §1, §2, §3
# [1] = Amaranthus retroflexus, 504 h, read-out: weed control effect (activity level, fresh weight growth inhibition rate), Amaranthus retroflexus
# [2] = 504 h, read-out: weed control effect (activity level, fresh weight growth inhibition rate), Chenopodiaceae
# [3] = Veronica polita, 504 h, read-out: weed control effect (activity level, fresh weight growth inhibition rate), Veronica polita
Compound,inhibition at 2000 g/ha (Amaranthus retroflexus; [1]),inhibition at 2000 g/ha (Chenopodiaceae; [2]),"weed control effect (activity level), Rorippa indica, comparison experiment (Rorippa indica)","weed control effect (activity level), Setaria viridis, comparison experiment (Setaria viridis)",inhibition at 2000 g/ha (Setaria viridis),"weed control effect (activity level), Veronica polita, comparison experiment (Veronica polita)",inhibition at 2000 g/ha (Veronica polita; [3]),"weed control effect (activity level), Digitaria sanguinalis, comparison experiment (Digitaria sanguinalis)","weed control effect (activity level), Echinochloa crus-galli, comparison experiment (Echinochloa crus-galli)",also measured
CCCCCOC(=O)Oc1cc(Cl)nnc1-c1cc(C)nn1C [Compound 1-1],100%,100%,10,10,100%,10,100%,8 (Level 8: above 80% growth inhibition rate),8 (Level 8: above 80% growth inhibition rate),–
Cc1cc(-c2nnc(Cl)cc2OC(=S)Oc2cccs2)n(C)n1 [Compound 1-5],100%,100%,–,–,100%,–,100%,–,–,–
Cc1cc(-c2nnc(Cl)cc2OC(C)OC(=O)OC(C)C)n(C)n1 (stereo not shown) [Compound 1-6],100%,100%,–,–,100%,–,100%,–,–,–
CCSC(=O)Oc1cc(Cl)nnc1-c1cc(C)nn1C [Compound 1-8],100%,100%,–,–,100%,–,100%,–,–,–
Cc1cc(-c2nnc(Cl)cc2OC(=O)N2CCOCC2)n(C)n1 [Compound 1-9],100%,100%,–,–,100%,–,100%,–,–,–
Cc1cc(-c2nnc(Cl)cc2O)n(C)n1 [Compound 1],–,–,10,10,–,10,–,7 (Level 7: above 70% growth inhibition rate),8 (Level 8: above 80% growth inhibition rate),"inhibition at 3000 g/ha (Amaranthus retroflexus; Amaranthus retroflexus, 504 h, 3000 g/ha, read-out: weed control effect (activity level, fresh weight growth inhibition rate), Amaranthus retroflexus): 100%; inhibition at 3000 g/ha (Chenopodiaceae; 504 h, 3000 g/ha, read-out: weed control effect (activity level, fresh weight growth inhibition rate), Chenopodiaceae): 100%; inhibition at 3000 g/ha (Rorippa indica; Rorippa indica, 504 h, 3000 g/ha, read-out: weed control effect (activity level, fresh weight growth inhibition rate), Rorippa indica): 100%; inhibition at 3000 g/ha (Veronica polita; Veronica polita, 504 h, 3000 g/ha, read-out: weed control effect (activity level, fresh weight growth inhibition rate), Veronica polita): 100%"
Cn1nccc1-c1nnc(Cl)cc1O [Compound 29],–,–,10,10,–,9 (Level 9: above 90% growth inhibition rate),–,6 (Level 6: above 60% growth inhibition rate),8 (Level 8: above 80% growth inhibition rate),"weed control effect (activity level, fresh weight growth inhibition rate), Amaranthus retroflexus (Amaranthus retroflexus; 3000 g/ha): 10 (Level 10: completely dead); weed control effect (activity level, fresh weight growth inhibition rate), Chenopodiaceae (Chenopodiaceae; 3000 g/ha): 10 (Level 10: completely dead); weed control effect (activity level, fresh weight growth inhibition rate), Rorippa indica (Rorippa indica; 3000 g/ha): 10 (Level 10: completely dead); weed control effect (activity level, fresh weight growth inhibition rate), Veronica polita (Veronica polita; 3000 g/ha): 10 (Level 10: completely dead)"
Cn1ncc(C(F)(F)F)c1-c1nnc(Br)cc1O [Compound 95],–,–,–,–,–,–,–,–,–,"weed control effect (activity level, fresh weight growth inhibition rate), Amaranthus retroflexus (Amaranthus retroflexus; 3000 g/ha): 10 (Level 10: completely dead); weed control effect (activity level, fresh weight growth inhibition rate), Chenopodiaceae (Chenopodiaceae; 3000 g/ha): 10 (Level 10: completely dead); weed control effect (activity level, fresh weight growth inhibition rate), Rorippa indica (Rorippa indica; 3000 g/ha): 10 (Level 10: completely dead); weed control effect (activity level, fresh weight growth inhibition rate), Veronica polita (Veronica polita; 3000 g/ha): 10 (Level 10: completely dead)"
CC(=O)n1nccc1-c1nnc(Cl)cc1O [Compound 130],–,–,–,–,–,–,–,–,–,"weed control effect (activity level, fresh weight growth inhibition rate), Amaranthus retroflexus (Amaranthus retroflexus; 3000 g/ha): 10 (Level 10: completely dead); weed control effect (activity level, fresh weight growth inhibition rate), Chenopodiaceae (Chenopodiaceae; 3000 g/ha): 10 (Level 10: completely dead); weed control effect (activity level, fresh weight growth inhibition rate), Rorippa indica (Rorippa indica; 3000 g/ha): 10 (Level 10: completely dead); weed control effect (activity level, fresh weight growth inhibition rate), Veronica polita (Veronica polita; 3000 g/ha): 10 (Level 10: completely dead)"
"Oc1cc(Cl)nnc1-c1ccccc1 [Control Compound A, reference compound]",–,–,2 (Level 2: above 20% growth inhibition rate),2 (Level 2: above 20% growth inhibition rate),–,5 (Level 5: above 50% growth inhibition rate),–,0,0,–
"CCCCCCCCSC(=O)Oc1cc(Cl)nnc1-c1ccccc1 [Control Compound B, reference compound]",–,–,3 (Level 3: above 30% growth inhibition rate),2 (Level 2: above 20% growth inhibition rate),–,5 (Level 5: above 50% growth inhibition rate),–,0,0,–
